Key:
Assay in all cases: relative viability (nuclei count vs DMSO), 5 days (fraction); higher = more cells survive
[1] = compound: CCN1CCN(c2ccc(Nc3cc(N(C)C(=O)Nc4c(Cl)c(OC)cc(OC)c4Cl)ncn3)cc2)CC1 [BGJ398] + O=C(c1cc(Cc2n[nH]c(=O)c3ccccc23)ccc1F)N1CCN(C(=O)C2CC2)CC1 [Olaparib] (partner 8 µM)
Method in brief: (§1)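 Nuclei were stained with Hoechst during a one-step fixation (final 0.05% Triton X-100, 1% formaldehyde, 1 ug/ml Hoechst) carried out 5 days after dosing, then counted on 4× images. The cells, lung cancer lines in 1536-well plates, had been dosed by pin tool the day after seeding with one drug alone or a fixed anchor-drug dose plus five library-drug doses (not always all listed) in √10 steps. Relative viability is the nuclei count in treated wells divided by that in vehicle wells, and each value is the median of duplicate plates.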

[2] = compound: C1=CC2=NC=CN=C2C=C1/C=C/3\C(=O)NC(=O)S3 + CC(=O)c1c(C)c2cnc(Nc3ccc(N4CCNCC4)cn3)nc2n(C2CCCC2)c1=O [Palbociclib] (partner 0.5 µM)
Method in brief: as §1

[3] = compound: CCN1CCN(c2ccc(Nc3cc(N(C)C(=O)Nc4c(Cl)c(OC)cc(OC)c4Cl)ncn3)cc2)CC1 [BGJ398] + CS(=O)(=O)N1CCN(Cc2cc3nc(-c4cccc5[nH]ncc45)nc(N4CCOCC4)c3s2)CC1 [Pictilisib] (partner 1 µM)
Method in brief: as §1

[4] = compound: CCN1CCN(c2ccc(Nc3cc(N(C)C(=O)Nc4c(Cl)c(OC)cc(OC)c4Cl)ncn3)cc2)CC1 [BGJ398] + CC(=O)c1c(C)c2cnc(Nc3ccc(N4CCNCC4)cn3)nc2n(C2CCCC2)c1=O [Palbociclib] (partner 0.5 µM)
Method in brief: as §1

Row | Cell Line | relative viability ([1]; first compound 0.01 µM) | relative viability ([1]; first compound 0.03162 µM) | relative viability ([1]; first compound 0.1 µM) | relative viability ([1]; first compound 0.3162 µM) | relative viability ([1]; first compound 1 µM) | relative viability ([2]; first compound 0.02 µM) | relative viability ([2]; first compound 0.06325 µM) | relative viability ([2]; first compound 0.2 µM) | relative viability ([2]; first compound 0.6325 µM) | relative viability ([2]; first compound 2 µM) | relative viability ([3]; first compound 0.01 µM) | relative viability ([3]; first compound 0.03162 µM) | relative viability ([3]; first compound 0.1 µM) | relative viability ([3]; first compound 0.3162 µM) | relative viability ([3]; first compound 1 µM) | relative viability ([4]; first compound 0.01 µM) | relative viability ([4]; first compound 0.03162 µM) | relative viability ([4]; first compound 0.1 µM) | relative viability ([4]; first compound 0.3162 µM) | relative viability ([4]; first compound 1 µM)
1 | NCI-H2228 | 0.606 | 0.765 | 0.512 | 0.594 | 0.441 | 0.591 | 0.665 | 0.79 | 0.705 | 0.606 | 0.342 | 0.56 | 0.531 | 0.484 | 0.365 | 0.645 | 0.885 | 0.922 | 0.638 | 0.738
2 | NCI-H2347 | 0.539 | 0.546 | 0.553 | 0.631 | 0.63 | 0.456 | 0.382 | 0.415 | 0.443 | 0.429 | 0.615 | 0.964 | 0.591 | 0.593 | 0.918 | 0.427 | 0.467 | 0.477 | 0.47 | 0.422
3 | NCI-H2405 | 0.818 | 0.954 | 0.926 | 0.923 | 0.768 | 0.517 | 0.585 | 0.528 | 0.512 | 0.436 | 0.406 | 0.587 | 0.42 | 0.482 | 0.421 | 0.523 | 0.586 | 0.52 | 0.553 | 0.547
4 | NCI-H3122 | 0.628 | 0.611 | 0.661 | 0.596 | 0.654 | 0.204 | 0.213 | 0.173 | 0.194 | 0.186 | 0.609 | 0.652 | 0.625 | 0.678 | 0.582 | 0.174 | 0.166 | 0.175 | 0.176 | 0.227
5 | PC-3 [JPC-3] | 1.12 | – | 1.26 | – | 1.15 | 0.492 | 0.637 | 0.566 | 0.561 | 0.541 | 0.716 | – | 0.708 | 0.492 | 0.689 | 0.591 | – | 0.522 | – | 0.569
6 | PC-14 | 0.322 | 0.346 | 0.254 | 0.289 | 0.27 | 0.492 | 0.539 | 0.559 | 0.488 | 0.587 | 0.696 | 0.346 | 0.92 | 0.669 | 0.866 | 0.505 | 0.524 | 0.664 | – | 0.513
7 | RERF-LC-KJ | 0.961 | 0.959 | 0.969 | 0.917 | 0.92 | 1.04 | 1.12 | 1.05 | 0.994 | 1.15 | 0.598 | 0.663 | 0.515 | 0.583 | 0.615 | 1.13 | 0.781 | 1.17 | 1.11 | 1.23
8 | SK-LU-1 | 0.461 | 0.579 | 0.539 | 0.348 | 0.329 | 0.376 | 0.367 | 0.374 | 0.403 | 0.411 | 0.547 | 0.61 | 0.497 | 0.531 | 0.424 | 0.394 | 0.47 | 0.384 | 0.339 | 0.346
9 | SK-MES-1 | 0.709 | 0.754 | 0.786 | 0.659 | 0.679 | 0.328 | 0.305 | 0.344 | 0.338 | 0.313 | 0.401 | 0.415 | 0.431 | 0.383 | 0.335 | 0.324 | 0.328 | 0.303 | 0.331 | 0.308
10 | SW 1573 | 0.413 | 0.388 | 0.45 | 0.543 | 0.525 | 0.464 | 0.56 | 0.346 | 0.309 | 0.33 | 0.485 | 0.486 | 0.495 | 0.438 | 0.611 | 0.399 | 0.419 | 0.402 | 0.423 | 0.404
